Data reported in patent US20090221690A1, “Pharmaceutical Composition for the Prevention/Treatment of Bone Disorders and a Process for the Preparation Thereof” (COUNCIL OF SCIENTIFIC AND INDUSTRIAL RESEARCH, priority 2006, published 2009).

Experiments:
[1] = tested on: Ishikawa (human uterine glandular epithelial carcinoma) cell line; test: MTT proliferation assay in Ishikawa cell line; format: cell-based; conditions: 10 nM and 1 μM; Ishikawa cells; FIG. 2
[2] = tested on: MCF-7 (human cancer breast) cell line; test: MTT proliferation assay in MCF-7 cell line; format: cell-based; conditions: 10 nM and 1 μM; MCF-7 cells; FIG. 2
osteoblast cells = test: Quantification of mineralization in osteoblasts (Alizarin red, acetic acid extraction); format: cell-based, Balb/c mouse; conditions: osteoblasts cultured 7 days; vs vehicle control; FIG. 13
Description: (§1) Neonatal mouse calvarial cell cultures are prepared as described previously (Endocrinology 139:4743) using slight modification. Briefly, for primary osteoblast cell cultures, frontal and parietal bones from Balb/c mouse neonates (1-3 day old) are digested in 0.1% collagenase/0.1% dispase in α-MEM to obtain 5 sequential digests. The second through fifth digests are combined and grown to confluence at 37° C. and 5% CO2 in air in α-MEM, supplemented with 10% fetal bovine serum (FBS), 2 mM glutamine, 100 U/ml penicillin-streptomycin, Non-essential amino acid solution and sodium pyruvate. The effect of test agents is analysed using the following tests:
For quantification of mineralization which is measured with increased deposition of nascent calcium in osteoblast cells, cells were cultured in the presence of test compounds for 7 days and stained with Alizarin red. Alizarin red was extracted with acetic acid and the intensity of stain, which is directly proportion to the extent of mineralisation, is read at 405 nm.

osteoblasts [3] = test: Quantification of alkaline phosphatase activity in osteoblasts; format: cell-based, Balb/c mouse; parameters: alkaline phosphatase activity: unit not given here; conditions: 48 h; for alkaline phosphatase activity: Control 1.87 ± 0.20, Mean±SEM; for expression of alkaline phosphatase vs vehicle control: 10^−11 M to 10^−5 M
Description: as §1
p-Nitrophenol phosphate is a colorless substrate which is hydrolysed to colored p-nitrophenol by alkaline phosphatase enzyme. Rate of hydrolysis of p-nitrophenol phosphate is proportional to enzyme present in sample. […] Findings reveal that all the five pure compounds nos.

[4] = tested on: osteoblasts cultured on sterile bovine bone slices; test: Mineralisation by osteoblasts cultured on bovine bone slices, Alizarin red staining; format: cell-based, Balb/c mouse; conditions: osteoblasts on bovine bone slices, 15 days; alone or in combination; FIGS. 14 and 15
Description: as §1
(§2) Cells are seeded onto sterile bovine bone slices in 96-well plate and treated with the culture medium containing α-MEM, supplemented with 10% fetal bovine serum, 2 mM glutamine, 100 U/ml penicillin-streptomycin, non-essential amino acid solution, sodium pyruvate, 10 mM P-glycerophosphate and 50 μg/ml ascorbic acid. Culture medium is changed every alternate day. At termination of the culture, cells are washed twice with PBS, fixed in cold 70% ethanol for 1 h and washed once with water and stained with 40 mM Alizarin red (pH 4.7) for 30 min and then washed in PBS to remove excess staining.
as §2, with “In case of osteoblasts” for “Cells are”, “slices, the cells are cultured” for “slices”, “in A-MEM” for “and treated with the culture medium containing α-MEM,”, “p-glycerophosphate” for “P-glycerophosphate”, “acid in the absence or presence of test compounds or their mixtures.” for “acid.”, “culture after 15 days,” for “culture,”

osteoblasts [5] = test: Osteogenic activity of isolated compounds based on alkaline phosphatase expression, MTT and mineralisation in vitro; format: cell-based
Text: K051, K052, K054, K080, K082 (isolated from n-butanol soluble fraction) and K095 (isolated from chloroform soluble fraction) (FIGS. 11-15; Tables 10-11).

primary osteoblasts = test: MTT assay for cell proliferation, primary osteoblast cell culture; format: cell-based, Balb/c mouse; conditions: for Osteoblast cell proliferation (MTT assay) / osteoblast cell proliferation vs vehicle control: 24 h; for Osteoblast cell proliferation (MTT assay): Vehicle 0.60 ± 0.06, Mean±SEM; for osteoblast cell proliferation vs vehicle control: 10^−11 M to 10^−5 M
Description: as §1
MTT assay is a common assay used for assessing cell proliferation where tetrazolium salt is reduced to formazone crystals by the mitochondrial dehydrogenase enzyme, which are then dissolved in DMSO. More the number of metabolically active cells more will be the formazone crystals formed. Briefly, osteoblast cells are maintained in α-MEM medium supplemented with 10% FCS and 1% antibiotic solution in 96 well plate. When the cells attain 40% confluency, they are treated in presence or absence of test agents in 2% FCS supplemented media for 24 h. Twenty-four hours thereafter, MTT salt is added to the cells. After 4 h, the formazone crystals formed are dissolved in DMSO and readings taken at wavelength of 570 nm.
This assay is based on the ability of viable cells to reduce tetrazolium salt to form formazone crystals by mitochondrial dehydrogenase enzyme. In MTT assay, osteoblasts are maintained in α-MEM medium supplemented with 10% FCS and 1% antibiotic solution in 96 well plate. When the cells attain 40% confluency, they are treated in presence or absence of test agents in 2% FCS supplemented media for 24 h. Twenty-four hours thereafter, MTT salt is added to the cells. After 4 h, the formazone crystals formed due to reduction of tetrazolium salt by mitochondrial dehydrogenase enzyme are dissolved in DMSO and readings taken at wavelength of 570 nm. All the five pure compounds nos.

rat fetal bones = test: Total alkaline phosphatase activity in cultured rat fetal bones; format: cell-based; parameters: dose or concentration left out as unconfirmed; conditions: rat fetal bones cultured for 48 h
Description: […] The homogenate is centrifuged at 5000 rpm for 10 min at 4° C. The supernatant is used as the enzyme solution. The activity of alkaline phosphatase is measured using ALP kit (Roche, Germany) and p-nitrophenol phosphate as substrate.

| SMILES | mineralisation quantified by alizarin extraction method (osteoblast cells) | alkaline phosphatase activity (osteoblasts [3]; 10^−5 M) | alkaline phosphatase activity (osteoblasts [3]; 10^−6 M) | alkaline phosphatase activity (osteoblasts [3]; 10^−7 M) | alkaline phosphatase activity (osteoblasts [3]; 10^−8 M) | alkaline phosphatase activity (osteoblasts [3]; 10^−9 M) | alkaline phosphatase activity (osteoblasts [3]; 10^−10 M) | expression of alkaline phosphatase vs vehicle control (osteoblasts [3]) | alkaline phosphatase activity (osteoblasts [3]; 10^−11 M) | intensity of alizarin red staining (rate of new bone formation) [4] | osteogenic activity (osteoblasts [5]) | Osteoblast cell proliferation (MTT assay) (primary osteoblasts; 10^−5 M) | Osteoblast cell proliferation (MTT assay) (primary osteoblasts; 10^−6 M) | Osteoblast cell proliferation (MTT assay) (primary osteoblasts; 10^−7 M) | Osteoblast cell proliferation (MTT assay) (primary osteoblasts; 10^−8 M) | Osteoblast cell proliferation (MTT assay) (primary osteoblasts; 10^−9 M) | Osteoblast cell proliferation (MTT assay) (primary osteoblasts; 10^−10 M) | osteoblast cell proliferation vs vehicle control (primary osteoblasts) | Osteoblast cell proliferation (MTT assay) (primary osteoblasts; 10^−11 M) | also measured |
| --- | --- | --- | --- | --- | --- | --- | --- | --- | --- | --- | --- | --- | --- | --- | --- | --- | --- | --- | --- | --- |
| O=C(c1ccc(OCCN2CCCCC2)cc1)c1c(-c2ccc(O)cc2)sc2cc(O)ccc12 [Raloxifene] | – | – | – | – | – | – | – | – | – | – | – | – | – | – | – | – | – | – | – | proliferation [1]: increased proliferation was observed; proliferation [2]: increased proliferation was observed in only the Ishikawa cell line |
| COc1ccc(-c2coc3cc(O)ccc3c2=O)cc1O [Compound K054, 7, 3′-dihydroxy-4′-methoxyisoflavone] | enhanced mineralisation | 2.65 ± 0.09 | 3.25 ± 0.07 | 3.32 ± 0.06 | 3.35 ± 0.03 | 3.32 ± 0.09 | 3.22 ± 0.12 | increased expression of alkaline phosphatase | 3.01 ± 0.25 | increased intensity of alizarin red staining | promising osteogenic activity | 1.40 ± 0.02 | 1.24 ± 0.01 | 1.26 ± 0.07 | 1.24 ± 0.06 | 1.06 ± 0.04 | 0.88 ± 0.09 | enhanced osteoblast cell proliferation | 0.75 ± 0.06 | – |
| O=P([O-])([O-])OC(CO)CO.[Na+].[Na+] [Sodium β-glycerophosphate] | – | – | – | – | – | – | – | – | – | – | – | – | – | – | – | – | – | – | – | Total alkaline phosphatase activity, percent increase (percent of vehicle control group) (rat fetal bones): 28%; Total alkaline phosphatase activity, percent increase (percent of vehicle control group) (rat fetal bones; listed as sodium p-glycerophosphate): 28% |
| COc1ccc(-c2coc3cc(O)ccc3c2=O)cc1 [Compound K080, 7-hydroxy, 4′-methoxy-isoflavone] | enhanced mineralisation | 3.45 ± 0.06 | 3.40 ± 0.02 | 3.46 ± 0.06 | 3.30 ± 0.01 | 3.33 ± 0.02 | 3.27 ± 0.08 | increased expression of alkaline phosphatase | 3.38 ± 0.02 | increased intensity of alizarin red staining | promising osteogenic activity | 1.49 ± 0.03 | 1.55 ± 0.05 | 1.43 ± 0.09 | 1.47 ± 0.02 | 1.58 ± 0.09 | 1.35 ± 0.03 | enhanced osteoblast cell proliferation | 1.25 ± 0.09 | – |
| COc1ccc2c(=O)c(-c3ccc(O)cc3)coc2c1 [Compound K052, 4′-hydroxy, 7-methoxy-isoflavone] | enhanced mineralisation | 2.29 ± 0.24 | 3.01 ± 0.09 | 3.05 ± 0.10 | 3.20 ± 0.06 | 3.07 ± 0.10 | 3.01 ± 0.26 | increased expression of alkaline phosphatase | 3.17 ± 0.06 | increased intensity of alizarin red staining | promising osteogenic activity | 1.19 ± 0.01 | 1.86 ± 0.13 | 1.70 ± 0.15 | 1.73 ± 0.09 | 1.70 ± 0.08 | 1.43 ± 0.05 | enhanced osteoblast cell proliferation | 1.45 ± 0.23 | relative potency in osteoblast proliferation (MTT) (primary osteoblasts; order K052, K080, K095, K051, K054): most potent |
| COc1cc(O)c2c(=O)c(-c3ccc(O)cc3O)coc2c1 [Compound K051, 2′,4′,5-trihydroxy-7-methoxy isoflavones] | enhanced mineralisation | 3.26 ± 0.07 | 3.24 ± 0.09 | 3.23 ± 0.11 | 3.41 ± 0.12 | 3.50 ± 0.07 | 3.59 ± 0.08 | increased expression of alkaline phosphatase | 3.63 ± 0.04 | increased intensity of alizarin red staining | promising osteogenic activity | 1.32 ± 0.05 | 1.34 ± 0.09 | 1.33 ± 0.01 | 1.32 ± 0.04 | 1.03 ± 0.03 | 0.92 ± 0.05 | enhanced osteoblast cell proliferation | 0.85 ± 0.05 | – |
| COc1ccc(-c2c(C)oc3cc(O)ccc3c2=O)cc1 [Compound K082, 2-methyl, 7-hydroxy, 4′-methoxy isoflavone] | enhanced mineralisation | – | – | – | – | – | – | – | – | increased intensity of alizarin red staining | promising osteogenic activity | – | – | – | – | – | – | – | – | – |
